Results taken from PMC12531871, “Indole-2-carboxamides Optimization for Antiplasmodial Activity” (ACS Bio & Med Chem Au, 2025).
≈ marks a conversion by molar mass, not a printed value. Like-named read-outs stand apart in the source and are kept apart here.

Columns and labels:
[1] = Kinetic solubility at pH 7.4; format: physicochemical; settings: phosphate-buffered saline, 25 °C, pH 7.4, aqueous buffer, kinetic from dmso stock; read-out: Kinetic solubility (Sol)
Procedure: Kinetic solubility assay was performed using UV–vis detection. […] The samples were filtered using a multiscreen solubility filter plate. The filtrate was diluted by 50% with MeCN. A five-point linearity curve was prepared in PBS/MeCN (1:1, v/v) at 200, 150, 75, 25, and 2.5 μM. Blank, linearity, and test samples (n = 2) were transferred to a UV-readable plate, and the plate was scanned for absorbance. Best-fit calibration curves were constructed using the calibration standards and used to determine the test sample solubility. The experiment was carried out in duplicate. Diethylstilbestrol, Haloperidol, and Diclofenac Sodium were used as reference standards.

[2] = eLogD at pH 7.4, miniaturized shake flask method; format: physicochemical; settings: 1-octanol/PBS (1:1, v/v), pH 7.4, pH 7.4, miniaturized shake flask method
Procedure: eLogD at pH 7.4 was determined using a miniaturized shake flask method. A solution of a presaturated mixture of 1-octanol and phosphate-buffered saline (PBS) (1:1, v/v) and the test compound (75 μM) was incubated at 25 °C with constant shaking (850 rpm) for 2h. After incubation, the organic and aqueous phases were separated, and samples of each phase were transferred to a plate for dilution. […] The samples were quantitated using LC-MS/MS. The experiment was carried out in duplicate. Propranolol, Amitriptyline, and Midazolam were used as reference standards.

[3] = test system: P. falciparum 3D7 strain (Pf3D7); test: Antiplasmodial activity against P. falciparum 3D7 blood-stage parasites (SYBR Green, 72 h); format: cell-based, Plasmodium falciparum; settings: for IC50: Plasmodium falciparum; for Pf3D7-IC50 compared to 6a: regio-isomers compared to 6a
Rat hepatocyte stability = format: in vitro ADME; settings: rat hepatocyte stability
Procedure: The reaction was terminated with the addition of ice-cold MeCN at designated time points. The samples were then centrifuged (4200 rpm) for 20 min at 20 °C, and the supernatant was half diluted in water and then analyzed using LCMS/MS. The % parent compound remaining, half-life (t 1/2), and clearance (CLint) were calculated using standard methodology. The experiment was carried out in duplicate. Diltiazem, 7-Ethoxy Coumarin, Propranolol, and Midazolam were used as reference standards.

[4] = Human liver microsome stability; format: in vitro ADME; settings: human, pooled human liver microsomes, human microsomal intrinsic clearance; read-out: hMics, human microsome Clint
Procedure: A solution of the test compounds in phosphate buffer solution (1 μM) was incubated in pooled human or mouse liver microsomes (0.5 mg/mL) for 0, 5, 20, 30, 45, and 60 min at 37 °C in the presence and absence of an NADPH regeneration system (NRS). The tests were conducted by […], India. The reaction was terminated with the addition of ice-cold acetonitrile, containing a […] standard, at designated time points. The sample was centrifuged (4200g) for 20 min at 20 °C and the supernatant was diluted by half in water and then analyzed by LC-MS/MS. The % parent compound remaining, half-life (t 1/2) and clearance (CLint) were calculated using standard methodology. The experiment was carried out in duplicate. Verapamil, diltiazem, phenacetin, and imipramine were used as reference standards.

[5] = Resazurin assay for cytotoxicity in HepG2 cells; format: cell-based, human; settings: human, HepG2 cells; HepG2 cell line, 72 h, resazurin
Procedure: HepG2 cells were trypsinized, counted, and distributed in a 96-well plate at a density of 30,000 cells per well (180 μL). The plate was incubated at 37 °C and 5% CO2 for 24 h. Following incubation, 20 μL of serial dilutions of the tested compounds were added to the wells, with concentrations ranging from 30 to 0.47 μM. The plate was incubated for an additional 72 h at 37 °C and 5% CO2. Untreated cells served as positive controls, while wells containing only medium were used as negative controls. Postincubation, microscopy was employed to determine the highest compound concentration for treatment results. […] Concentration–response curves were generated, and half-maximal inhibitory concentration (CC50) values were determined using nonlinear regression analysis.

P. falciparum K1 strain = test: Antiplasmodial activity against resistant P. falciparum K1; format: cell-based; settings: Plasmodium falciparum, 3D7 / K1; resistant K1, in parallel with 3D7; read-out: IC50^K1 ± SD
P. falciparum Dd2 strain = test: Antiplasmodial activity against resistant P. falciparum Dd2; format: cell-based; settings: Plasmodium falciparum, 3D7 / DD2; resistant Dd2, in parallel with 3D7; read-out: IC50^Dd2 ± SD
[6] = 3D7, 72 h, 3D7 strain, 72 h, SYBR Green, read-out: Pf3D7-IC50
[7] = 3D7 / DD2, sensitive 3D7, in parallel with K1 and Dd2, read-out: IC50^3D7 ± SD

Compound	solubility kinetic at 2 h [1] [µM]	logD at 2 h [2]	IC50 [3, 6] [µM]	R Heps (Clint) (Rat hepatocyte stability) [μL/min/10^6]	microsomal CLint at 1 μM [4] [µL/min/mg]	further results
O=C(c1cc2cc(Cl)ccc2[nH]1)N(Cc1cccnc1)C[C@H]1CCNC1 [6a (S), 5-Chloro-N-(3-pyridylmethyl)-N-[[(3S)-pyrrolidin-3-yl]methyl]-1H-indole-2-carboxamide]	196 (≈ 72.3 µg/mL)	0.7	2 ± 0.4	12	3	CC50 at 72 h [5]: > 30 µM
O=C(c1cc2cc(Cl)ccc2[nH]1)N(Cc1cccnc1)CC1CCOC1 (centres unmarked) [Compound 5r, 5-Chloro-N-(pyridin-3-ylmethyl)-N-((tetrahydrofuran-3-yl)methyl)-1H-indole-2-carboxamide]	–	–	> 10	–	–	–
O=C(c1cc2cccc(Cl)c2[nH]1)N(Cc1cccnc1)CC1CCNC1 (centres unmarked) [Compound 6c, 7-Chloro-N-(3-pyridylmethyl)-N-(pyrrolidin-3-ylmethyl)-1H-indole-2-carboxamide]	> 1000	0.2	2.2 ± 0.3	60	4	IC50 [3, 7]: 2.3 ± 0.6 µM; IC50 (P. falciparum K1 strain): 4.9 ± 0.6 µM; IC50 (P. falciparum Dd2 strain): 8.2 ± 0.3 µM
O=C(c1cc2cc(F)ccc2[nH]1)N(Cc1cccnc1)CC1CCNC1 (centres unmarked) [Compound 6e, 5-Fluoro-N-(3-pyridylmethyl)-N-(pyrrolidin-3-ylmethyl)-1H-indole-2-carboxamide]	> 1000	-0.1	8.8 ± 0.1	32	7	–
O=C(c1c[nH]c2ccc(Cl)cc12)N(Cc1cccnc1)CC1CCNC1 (centres unmarked) [Compound 6h, 5-Chloro-N-(3-pyridylmethyl)-N-(pyrrolidin-3-ylmethyl)-1H-indole-3-carboxamide]	–	–	> 10	–	–	–
O=C(c1cccc(Cl)c1)N(Cc1cccnc1)CC1CCNC1 (centres unmarked) [Compound 6j, 3-Chloro-N-(pyridin-3-ylmethyl)-N-(pyrrolidin-3-ylmethyl)benzamide]	–	–	> 25	–	–	–
O=C(c1cc2cc(Cl)ccc2[nH]1)N(Cc1ccccn1)CC1CCNC1 (centres unmarked) [Compound 6m, 5-Chloro-N-(2-pyridylmethyl)-N-(pyrrolidin-3-ylmethyl)-1H-indole-2-carboxamide]	–	–	14.1 ± 0.6	–	–	Pf3D7-IC50 compared to 6a [3]: > 10 fold
O=C(c1cc2cc(Cl)ccc2[nH]1)N(Cc1cnccn1)CC1CCNC1 (centres unmarked) [Compound 6n, 5-Chloro-N-(pyrazin-2-ylmethyl)-N-(pyrrolidin-3-ylmethyl)-1H-indole-2-carboxamide]	–	–	> 10	–	–	–
CS(=O)(=O)c1ccc(CN(CC2CCNC2)C(=O)c2cc3cc(Cl)ccc3[nH]2)cn1 (centres unmarked) [Compound 6p, 5-Chloro-N-[(6-methylsulfonyl-3-pyridyl)methyl]-N-(pyrrolidin-3-ylmethyl)-1H-indole-2-carboxamide]	–	–	> 10	–	–	–
CN1CCC(CN(Cc2cccnc2)C(=O)c2cc3cc(Cl)ccc3[nH]2)C1 (centres unmarked) [Compound 7a, 5-Chloro-N-[(1-methylpyrrolidin-3-yl)methyl]-N-(pyridin-3-ylmethyl)-1H-indole-2-carboxamide]	190 (≈ 72.8 µg/mL)	1.6	0.46 ± 0.05	28	20	IC50 [3, 7]: 0.8 ± 0.2 µM; IC50 (P. falciparum K1 strain): 1.2 ± 0.3 µM; IC50 (P. falciparum Dd2 strain): 2.2 ± 0.3 µM

Now from value to compound, other results behind:

solubility kinetic at 2 h [1] [µM]	logD at 2 h [2]	IC50 [3, 6] [µM]	R Heps (Clint) (Rat hepatocyte stability) [μL/min/10^6]	microsomal CLint at 1 μM [4] [µL/min/mg]	Compound	further results
196 (≈ 72.3 µg/mL)	0.7	1 ± 0.2	8	10	O=C(c1cc2cc(Cl)ccc2[nH]1)N(Cc1cccnc1)C[C@@H]1CCNC1 [6a (R), 5-Chloro-N-(3-pyridylmethyl)-N-[[(3R)-pyrrolidin-3-yl]methyl]-1H-indole-2-carboxamide]	CC50 at 72 h [5]: > 30 µM
–	–	> 10	–	–	O=C1CC(CN(Cc2cccnc2)C(=O)c2cc3cc(Cl)ccc3[nH]2)CN1 (centres unmarked) [Compound 5s, 5-Chloro-N-[(5-oxopyrrolidin-3-yl)methyl]-N-(3-pyridylmethyl)-1H-indole-2-carboxamide]	–
–	–	8.3 ± 0.2	–	–	O=C(c1cc2ccccc2[nH]1)N(Cc1cccnc1)CC1CCNC1 (centres unmarked) [Compound 6b, N-(3-Pyridylmethyl)-N-(pyrrolidin-3-ylmethyl)-1H-indole-2-carboxamide]	–
–	–	5.8	–	–	Cc1c(C(=O)N(Cc2cccnc2)CC2CCNC2)[nH]c2ccc(Cl)cc12 (centres unmarked) [Compound 6g, 5-Chloro-3-methyl-N-(3-pyridylmethyl)-N-(pyrrolidin-3-ylmethyl)-1H-indole-2-carboxamide]	IC50 [3, 7]: 4.2 ± 0.5 µM; IC50 (P. falciparum K1 strain): 6.3 ± 0.3 µM; IC50 (P. falciparum Dd2 strain): 9 ± 0.7 µM
–	–	> 10	–	–	O=C(c1nc2cc(Cl)ccc2[nH]1)N(Cc1cccnc1)CC1CCNC1 (centres unmarked) [Compound 6i, 5-Chloro-N-(3-pyridylmethyl)-N-(pyrrolidin-3-ylmethyl)-1H-benzimidazole-2-carboxamide]	–
–	–	6.7 ± 0.3	–	–	O=C(c1cc2cc(Cl)ccc2[nH]1)N(Cc1ccccc1)CC1CCNC1 (centres unmarked) [Compound 6k, N-Benzyl-5-chloro-N-(pyrrolidin-3-ylmethyl)-1H-indole-2-carboxamide]	–
–	–	12.8 ± 0.8	–	–	O=C(c1cc2cc(Cl)ccc2[nH]1)N(Cc1ccncc1)CC1CCNC1 (centres unmarked) [Compound 6l, 5-Chloro-N-(4-pyridylmethyl)-N-(pyrrolidin-3-ylmethyl)-1H-indole-2-carboxamide]	Pf3D7-IC50 compared to 6a [3]: > 10 fold
883 (≈ 386 µg/mL)	1.5	4.3 ± 0.2	10	3	O=C(c1cc2cc(Cl)ccc2[nH]1)N(Cc1ccc(C(F)(F)F)nc1)CC1CCNC1 (centres unmarked) [Compound 6o, 5-Chloro-N-(pyrrolidin-3-ylmethyl)-N-[[6-(trifluoromethyl)-3-pyridyl]methyl]-1H-indole-2-carboxamide]	–
–	–	> 10	–	–	CNCCN(CC1CCNC1)C(=O)c1cc2cc(Cl)ccc2[nH]1 (centres unmarked) [Compound 6q, 5-Chloro-N-[2-(methylamino)ethyl]-N-(pyrrolidin-3-ylmethyl)-1H-indole-2-carboxamide]	–
148 (≈ 50.7 µg/mL)	2.6	1.8 ± 0.2	29	20	CNCCN(Cc1cccnc1)C(=O)c1cc2cc(Cl)ccc2[nH]1 [Compound 6u, 5-Chloro-N-[2-(methylamino)ethyl]-N-(3-pyridylmethyl)-1H-indole-2-carboxamide]	–
> 1000	0.9	0.57 ± 0.07	17	< 3	O=C(c1cc2cc(Cl)ccc2[nH]1)N(Cc1cccnc1)C1CCNC1 (centres unmarked) [Compound 6v, 5-Chloro-N-(3-pyridylmethyl)-N-pyrrolidin-3-yl-1H-indole-2-carboxamide]	–
> 1000	0.5	0.9 ± 0.1	9	< 3	O=C(c1cc2cc(Cl)ccc2[nH]1)N(Cc1cccnc1)CC1CCNCC1 [Compound 6w, 5-Chloro-N-(4-piperidylmethyl)-N-(3-pyridylmethyl)-1H-indole-2-carboxamide]	–
